Assay results published in patent US8461328B2, “Tricyclic heterocyclic compounds, compositions and methods of use thereof” (Genentech, Inc., priority 2010, dated 2013).

Experiments:
Type in all cases: biochemical
JAK1 = biological target: T1, JAK1 (Homo sapiens, UniProt P23458); experiment: JAK1 inhibition (Table 4); details: read-out: JAK1 Ki
T1 construct: made in house; host or cells: SF9 insect cells (baculovirus)

JAK2 = biological target: T2, JAK2 (Homo sapiens, UniProt O60674); experiment: JAK2 inhibition (Table 4); details: read-out: JAK2 Ki
T2 construct: made in house; host or cells: SF9 insect cells (baculovirus)
T2 sequence (O60674 812-1132): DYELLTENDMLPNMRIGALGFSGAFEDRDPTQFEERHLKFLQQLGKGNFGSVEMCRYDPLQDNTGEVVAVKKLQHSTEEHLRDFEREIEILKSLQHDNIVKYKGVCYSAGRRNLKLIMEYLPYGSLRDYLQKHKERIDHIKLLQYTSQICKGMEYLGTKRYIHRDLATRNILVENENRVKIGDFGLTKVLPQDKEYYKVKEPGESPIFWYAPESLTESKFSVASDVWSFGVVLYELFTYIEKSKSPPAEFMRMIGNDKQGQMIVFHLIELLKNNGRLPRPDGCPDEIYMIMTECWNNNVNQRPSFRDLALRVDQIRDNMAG

JAK3 = biological target: T3, JAK3 (Homo sapiens, UniProt P52333); experiment: JAK3 inhibition (Table 4); details: read-out: JAK3 Ki
T3 construct: made in house; host or cells: SF9 insect cells (baculovirus)
T3 sequence (P52333 783-1124): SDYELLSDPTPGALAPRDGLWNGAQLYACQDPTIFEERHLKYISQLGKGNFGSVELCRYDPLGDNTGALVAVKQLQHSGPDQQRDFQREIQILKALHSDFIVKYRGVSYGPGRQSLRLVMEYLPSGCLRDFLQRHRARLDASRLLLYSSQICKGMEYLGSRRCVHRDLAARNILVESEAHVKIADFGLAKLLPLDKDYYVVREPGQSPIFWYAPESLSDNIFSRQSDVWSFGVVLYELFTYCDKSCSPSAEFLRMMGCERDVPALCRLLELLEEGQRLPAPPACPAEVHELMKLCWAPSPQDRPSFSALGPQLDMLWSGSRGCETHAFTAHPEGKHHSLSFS

TYK2 = biological target: T4, TYK2 (Homo sapiens, UniProt P29597); experiment: TYK2 inhibition (Table 4)
T4 construct: made in house; host or cells: SF9 insect cells (baculovirus)
T4 sequence (P29597 873-1187): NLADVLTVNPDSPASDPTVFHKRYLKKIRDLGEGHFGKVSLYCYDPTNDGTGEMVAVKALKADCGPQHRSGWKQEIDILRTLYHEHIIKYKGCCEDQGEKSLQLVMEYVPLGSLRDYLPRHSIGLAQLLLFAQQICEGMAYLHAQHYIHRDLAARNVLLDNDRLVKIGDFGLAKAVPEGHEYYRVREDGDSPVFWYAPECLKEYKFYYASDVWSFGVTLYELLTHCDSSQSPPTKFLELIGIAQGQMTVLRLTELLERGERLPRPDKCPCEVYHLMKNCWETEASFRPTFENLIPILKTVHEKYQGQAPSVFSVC

T1 sequence (P23458 852-1154): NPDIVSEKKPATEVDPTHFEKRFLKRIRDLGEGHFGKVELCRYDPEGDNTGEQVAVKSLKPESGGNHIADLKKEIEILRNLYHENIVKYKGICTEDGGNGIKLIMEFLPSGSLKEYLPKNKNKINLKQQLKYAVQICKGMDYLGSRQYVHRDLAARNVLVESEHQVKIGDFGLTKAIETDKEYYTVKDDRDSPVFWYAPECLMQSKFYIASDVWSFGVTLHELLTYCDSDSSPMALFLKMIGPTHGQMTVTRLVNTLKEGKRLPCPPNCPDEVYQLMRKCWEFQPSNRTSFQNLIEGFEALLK

Ki (JAK1) [nM]	Ki (JAK2) [nM]	Ki (JAK3) [nM]	Ki (TYK2) [nM]	Structure (SMILES)
35.2	2470	1150	1600	C[C@@H](O)c1nc2cnc3[nH]ccc3c2n1[C@H]1CCNC1 [Example 926, (R)-1-((S)-1-Pyrrolidin-3-yl-1,6-dihydro-1,3,5,6-tetraaza-as-indacen-2-yl)-ethanol]
39.9	97.6	344	338	Cn1ncc2c1CC[C@H](n1cnc3cnc4[nH]ccc4c31)C2 [Example 954, 1-((S)-1-Methyl-4,5,6,7-tetrahydro-1H-indazol-5-yl)-1,6-dihydro-1,3,5,6-tetraaza-as-indacene]
7.67	8.9	109	53.6	Cn1ncc2c1CC[C@@H](n1cnc3cnc4[nH]ccc4c31)C2 [Example 955, 1-((R)-1-Methyl-4,5,6,7-tetrahydro-1H-indazol-5-yl)-1,6-dihydro-1,3,5,6-tetraaza-as-indacene]
50	60.2	210	174	CC(C)(O)[C@H]1CC[C@@H](n2cnc3cnc4[nH]ccc4c32)CC1 [Example 957, Cis-2-[4-(6H-1,3,5,6-Tetraaza-as-indacen-1-yl)-cyclohexyl]-propan-2-ol]
4.63	6.3	86.5	38	N#CCCn1ncc2c1CC[C@H](n1cnc3cnc4[nH]ccc4c31)C2 [Example 959, 3-[(S)-5-(6H-1,3,5,6-Tetraaza-as-indacen-1-yl)-4,5,6,7-tetrahydro-indazol-1-yl]-propionitrile]
17.8	37.3	253	108	N#CCCn1ncc2c1CC[C@@H](n1cnc3cnc4[nH]ccc4c31)C2 [Example 992, 3-[(R)-5-(6H-1,3,5,6-Tetraaza-as-indacen-1-yl)-4,5,6,7-tetrahydro-indazol-1-yl]-propionitrile]
1.67	4	24.1	7.15	CC1(O)CCC(n2cnc3cnc4[nH]ccc4c32)CC1 (stereo not drawn) [Example 993, Cis-1-Methyl-4-(6H-1,3,5,6-tetraaza-as-indacen-1-yl)-cyclohexanol]
6.41	13.7	74.1	32.1	OC1(C2CC2)CCC(n2cnc3cnc4[nH]ccc4c32)CC1 (stereo not drawn) [Example 995, Trans-1-Cyclopropyl-4-(6H-1,3,5,6-tetraaza-as-indacen-1-yl)-cyclohexanol]

Further lines, the molecule ahead of its results:

Structure (SMILES)	Ki (JAK1) [nM]	Ki (JAK2) [nM]	Ki (JAK3) [nM]	Ki (TYK2) [nM]
O=C(NCc1nc2cnc3[nH]ccc3c2n1C1CCCCC1)C1CCC1 [Example 924, Cyclobutanecarboxylic acid (1-cyclohyl-1,6-dihydro-1,3,5,6-tetraaza-as-indacen-2-ylmethyl)-amide]	17.7	95.7	54.1	72.5
CS(=O)(=O)NCc1nc2cnc3[nH]ccc3c2n1C1CC2CCC1O2 (centres unmarked) [Example 925, N-[1-(7-Oxa-bicyclo[2.2.1]hept-2-yl)-1,6-dihydro-1,3,5,6-tetraaza-as-indacen-2-ylmethyl]-methanesulfonamide]	30	252	555	338
CCOC(=O)N1CCC(n2c([C@@H](C)O)nc3cnc4[nH]ccc4c32)CC1 [Example 927]	176	613	383	711
Cc1nc2cnc3[nH]ccc3c2n1C1CN2CCC1CC2 (centres unmarked) [Example 928, 1-(1-Aza-bicyclo[2.2.2]oct-3-yl)-2-methyl-1,6-dihydro-1,3,5,6-tetraaza-as-indacene]	125	206	449	887
COC(=O)N1CCC(n2c([C@@H](C)O)nc3cnc4[nH]ccc4c32)CC1 [Example 929, 4-[2-((R)-1-Hydroxy-ethyl)-6H-1,3,5,6-tetraaza-as-indacen-1-yl]-piperidine-1-carboxylic acid methyl ester]	106	578	185	281
C[C@@H](O)c1nc2cnc3[nH]ccc3c2n1[C@H]1CCN(S(C)(=O)=O)C1 [Example 930, (R)-1-[1-((S)-1-Methanesulfonyl-pyrrolidin-3-yl)-1,6-dihydro-1,3,5,6-tetraaza-as-indacen-2-yl]-ethanol]	87.2	950	190	347
CCOC(=O)N1CC[C@H](n2c([C@@H](C)O)nc3cnc4[nH]ccc4c32)C1 [Example 931, (S)-3-[2-((R)-1-Hydroxy-ethyl)-6H-1,3,5,6-tetraaza-as-indacen-1-yl]-pyrrolidine-1-carboxylic acid ethyl ester]	65.1	1860	904	232
OC1CCN(Cc2nc3cnc4[nH]ccc4c3n2C2CCCCC2)CC1 [Example 932, 1-(1-Cyclohyl-1,6-dihydro-1,3,5,6-tetraaza-as-indacen-2-ylmethyl)-piperidin-4-ol]	41	579	1050	357
CC(O)c1nc2cnc3[nH]ccc3c2n1C1CCN(Cc2cnco2)CC1F (centres unmarked) [Example 933, 1-[1-(3-Fluoro-1-oxazol-5-ylmethyl-piperidin-4-yl)-1,6-dihydro-1,3,5,6-tetraaza-as-indacen-2-yl]-ethanol]	1.84	38.5	11.2	54.5
CC(O)CN1CCC(n2c(C(C)O)nc3cnc4[nH]ccc4c32)CC1 (centres unmarked) [Example 934, 1-{4-[2-(1-Hydroxy-ethyl)-6H-1,3,5,6-tetraaza-as-indacen-1-yl]-piperidin-1-yl}-propan-2-ol]	12.9	669	549	465
Cc1noc(CN2CC[C@H](n3c([C@@H](C)O)nc4cnc5[nH]ccc5c43)C2)n1 [Example 935, (R)-1-{1-[(S)-1-(3-Methyl-[1,2,4]oxadiazol-5-ylmethyl)-pyrrolidin-3-yl]-1,6-dihydro-1,3,5,6-tetraaza-as-indacen-2-yl}-ethanol]	65.5	1060	394	542
CC(O)c1nc2cnc3[nH]ccc3c2n1C1CC2CCC1O2 (centres unmarked) [Example 938, 1-[1-(7-Oxa-bicyclo[2.2.1]hept-2-yl)-1,6-dihydro-1,3,5,6-tetraaza-as-indacen-2-yl]-ethanol]	88.3	263	119	175
C[C@@H](O)c1nc2cnc3[nH]ccc3c2n1C1CC2CCC1C2 (stereo partly drawn) [Example 943, (R)-1-(1-Bicyclo[2.2.1]hept-2-yl-1,6-dihydro-1,3,5,6-tetraaza-as-indacen-2-yl)-ethanol]	0.57	8.22	18.7	2.92
c1cc2c(ncc3ncn([C@H]4[C@@H]5CNC[C@@H]54)c32)[nH]1 [Example 944, (1R,5S,6S)-1-(3-Aza-bicyclo[3.1.0]hex-6-yl)-1,6-dihydro-1,3,5,6-tetraaza-as-indacene]	229	886	2440	1810
Cc1nc2cnc3[nH]ccc3c2n1C1CCC(C)(O)CC1 (stereo not drawn) [Example 994, Trans-1-Methyl-4-(2-methyl-6H-1,3,5,6-tetraaza-as-indacen-1-yl)-cyclohexanol]	2.91	8.02	17	25.3
